The results in this text go back to patent US20190038659A1, “METHODS OF TREATING AND PREVENTING AMYOTROPHIC LATERAL SCLEROSIS” (priority 2015, published 2019).

In one assay the test system is HERV-K viral transcripts. The assay is described as follows: HERV-K activation in human neuronal cultures after neuronal injury (viral transcripts). It counts as cell-based. Particulars: human neurons; 3 mM 3-nitropropionic acid, 100 μM N-methyl-D-aspartate or 100 μM hydrogen peroxide, 18 hours.
The subject of the next assay is VSV-G pseudotyped HERV-K. As to the kind of experiment: cells. Particulars: for IC90: Homo sapiens, HeLa, 144 h, read-out: IC90, HERV-K replication (gag RNA by qPCR). It counts as cell-based, human endogenous retrovirus-K (HERV-K). (In general: In qPCR the cycle at which signal appears reflects the starting amount.)
Assay [1] concerns HERV-K reverse transcriptase. The assay is described as follows: HERV-K RT activity in a cell-free system (PERT assay). The following applies: inhibitor added to extracted HERV-K RT just prior to PERT assay. Format: biochemical, human endogenous retrovirus-K (HERV-K).
For a further assay, the system named is HERV-K protease. As to the kind of experiment: HERV-K viral production from pCD-HK/Rev transfected HeLa cells with protease inhibitors (PERT assay of supernatant). It counts as cell-based, human endogenous retrovirus-K (HERV-K). Particulars: for IC90: Homo sapiens; for inhibition of HERV-K viral production (in words): inhibitors added 6 hr after transfection, PERT assay.

[2] abbreviates: 2-fold serial dilution 31.25 nM to 1 μM.
[3] abbreviates: 2-fold serial dilution 31.25 nM to 1 μM, PERT 48 hrs, read-out: IC90, HERV-K viral production.
Setting [4] is: 10-fold serial dilution 0.001 μM-100 μM, PERT 48 hr post-treatment, read-out: IC90, HERV-K protease / viral production, extensive dose-response.

Entries after “also recorded” stand apart in the source; their conditions may differ. Like-named read-outs stand apart in the source and are kept apart here.

With `CN[C@H](CC(=O)O)C(=O)O` [N-methyl-D-aspartate], in the assay with HERV-K viral transcripts, the “activation of HERV-K (viral transcripts)” value is “No activation of HERV-K”.
Take `Cc1nnc(C(=O)NC(C)(C)c2nc(C(=O)NCc3ccc(F)cc3)c(O)c(=O)n2C)o1` [Raltegravir]: in the assay with VSV-G pseudotyped HERV-K, the “inhibition of HERV-K replication (in words)” value was “effectively block; also recorded: inhibited the replication of HERV-K in a dose-dependent manner; also recorded: effectively inhibited” and the IC90 is 75 nM.
Regarding `Cc1cc(C#N)cc(C)c1Oc1nc(Nc2ccc(C#N)cc2)nc(N)c1Br` [Etravirine], in assay [1], the “inhibition of HERV-K RT activity” value was “significant inhibition”.
Regarding `O=C(O)CC[N+](=O)[O-]` [3-nitropropionic acid], the “activation of HERV-K (viral transcripts)” value in the assay with HERV-K viral transcripts is reported as “No activation of HERV-K”.
For `Cc1cn([C@H]2C=C[C@@H](CO)O2)c(=O)[nH]c1=O` [Stavudine], the “inhibition of HERV-K RT activity” value in assay [1] was “significant and dose-dependent inhibition”.
Still for that read-out and setting: in the case of `C[C@H](Cn1cnc2c(N)ncnc21)OCP(=O)(O)O` [Tenofovir] it was “significant and dose-dependent inhibition”.
As to `Cc1cccc(C)c1OCC(=O)N[C@@H](Cc1ccccc1)[C@@H](O)C[C@H](Cc1ccccc1)NC(=O)[C@H](C(C)C)N1CCCNC1=O` [Lopinavir], the “rank among the HIV protease inhibitors tested” value in the assay on HERV-K protease (setting [2]) was “highest efficacy; also recorded: two most potent drugs”. In addition, the IC90 with HERV-K protease (setting [3]) was approximately 100 nM; in the assay with HERV-K protease (setting [4]) it was 651 nM. Moreover, in the assay with HERV-K protease, the “inhibition of HERV-K viral production (in words)” value is given as “inhibited HERV-K protease in a dose-dependent manner”.
For `CC(C)CN(C[C@@H](O)[C@H](Cc1ccccc1)NC(=O)O[C@H]1CO[C@H]2OCC[C@H]21)S(=O)(=O)c1ccc(N)cc1` [Darunavir], in that order: “highest efficacy; also recorded: two most potent drugs”, approximately 100 nM, 71 nM and “inhibited HERV-K protease in a dose-dependent manner”.
Take `O=C1Nc2ccc(Cl)cc2[C@@](C#CC2CC2)(C(F)(F)F)O1` [Efirvarenz]: the “inhibition of HERV-K RT activity” value in assay [1] is given as “significant inhibition”.
Regarding `Cc1ccnc2c1NC(=O)c1cccnc1N2C1CC1` [Nevirapine], the “inhibition of HERV-K RT activity” value in assay [1] was “significant inhibition”.
With `OO` [hydrogen peroxide], the “activation of HERV-K (viral transcripts)” value in the assay on HERV-K viral transcripts is “No activation of HERV-K”.
For `Cc1cn([C@H]2C[C@H](N=[N+]=[N-])[C@@H](CO)O2)c(=O)[nH]c1=O` [Zidovudine], the “inhibition of HERV-K RT activity” value in assay [1] was “significant and dose-dependent inhibition”. In the assay on VSV-G pseudotyped HERV-K, the “inhibition of HERV-K replication (in words)” value is “effectively block; also recorded: inhibited HERV-K replication in a dose-dependent manner; also recorded: effectively inhibited” and the IC90 was 70 nM.
On to `Nc1nc(NC2CC2)c2ncn([C@H]3C=C[C@@H](CO)C3)c2n1` [Abacavir], for which, in assay [1], the “inhibition of HERV-K RT activity” value was “significant and dose-dependent inhibition”. For the same compound, in the assay on VSV-G pseudotyped HERV-K, the “inhibition of HERV-K replication (in words)” value is listed as “effectively block; also recorded: inhibited HERV-K replication in a dose-dependent manner; also recorded: effectively inhibited” and the IC90 was 175 nM.
